One molecule from patent publication US11793983B2, “Sonodynamic therapy using microbubbles and pulsed wave ultrasound methods and systems” (University of Pittsburgh-Of the Commonwealth System of …, priority 2017, dated 2023) can be followed below.

The series has as its system Mouse squamous cell carcinoma cells SCC-VII. The series is described as follows: Cytotoxicity in vitro with ultrasound, alamarBlue cell viability assay. To be noted: +US, ISAPA=1 W/cm^2, 10% duty cycle, 2 min, 24 hours after treatment. In kind it is cell-based. The method, then: Mouse squamous cell carcinoma cells SCC-VII were cultured in RPMI 1640 medium supplemented with 10% fetal bovine serum (FBS), […] and 200 IU/mL penicillin (Gibco, ThermoFisher Scientific, Waltham, Mass.). Cells were harvested and suspended in a concentration of 1×10^6 cells/mL using serum free RPMI-1640 medium. Every 2 mL of cell suspension was transferred to 14 mL Falcon round-bottom polystyrene tubes. Immediately before the US treatment, the suspension was supplemented together with various concentrations of MBPpIX. US (1 MHz, 10% duty cycle) exposure time for each acoustic condition is 2 min. During exposure, the sample tube was gently shaking occasionally (every 10 sec) to improve mixing and to provide uniform exposure. Free PpIX (first dissolved in DMSO; final concentration: 2.9 μM) or PpIX liposome (precursor of MBPpIX, with equivalent PpIX concentration of 2.9 μM) were used for comparison and cells not treated were used as controls (NT). After treatment procedure, 300 μL of the cell suspension was transferred to a 24 well plate prefilled with 2 mL cell culture medium, and the cells were incubated at 37° C. for 24 hours. Cell viability was then measured using alamarBlue cell viability assay. Cell morphology was examined with bright field microscopy (IX81, Olympus, Center Valley, Pa.). […]

SMILES strings stand for the structures.

Broadly, the cell viability is a read-out of living cells in per cent, often relative to untreated cells.

Take `C=CC1=C(C)c2cc3[nH]c(cc4nc(cc5[nH]c(cc1n2)c(C)c5CCC(=O)O)C(CCC(=O)O)=C4C)c(C)c3C=C` [PpIX, protoporphyrin IX]: the cell viability turned out to be 4±3%.
